These results are taken from patent US20220034868A1, “CARDIOTOXICITY ASSESSMENT METHOD” (ZEON CORPORATION, priority 2018, published 2022).

Structures are written as SMILES.

In this series the test system is iCell Cardiomyocytes^2. The experiment in a line: Cardiotoxicity assessment: cell-secreted BNP before and after drug addition (Human BNP ELISA Kit), 1060R 96-well plate. The class given is cell-based. To be noted: Example 1; 1060R 96-well plate (surface free energy 34 mN/m), fibronectin coated; final doxorubicin 10^-6 M to 10^-14 M; 16 hours at 37° C.; n=3; FIG. 1. An excerpt: As a culture container a 96-well plate with 96 cylindrical wells each having a bottom area of 0.32 cm^2 was obtained by injection molding of ZEONOR® 1060R (ZEONOR is a registered trademark in Japan, other countries, or both) (ZEON Corporation, hydrogenated norbornene ring-opened polymer, hereinafter simply “1060R”) as an alicyclic structure-containing polymer. The culture container was sterilized with ethylene oxide gas (hereinafter, this culture container is referred to as “1060R 96-well plate”). The surface free energy at the inner bottom surface (cell-contacting surface, or culture surface) of each well of the 1060R 96-well plate was 34 mN/m. The surface free energy was measured using surface energy evaluation inks (Arcotest GmbH).
To each well of the […] 96-well plate was added 200 μL of 10 μg/mL human fibronectin (Corning Incorporated, product number: 356008) solution in sterile water and incubated at 37° C. for 2 hours to coat the inner bottom surface of each well with human fibronectin. Human fibronectin solution was removed from each well. […]
Supernatant samples before and after doxorubicin addition were measured for BNP level using Human BNP ELISA Kit (RayBiotech, product number: ELH-BNP).
Background: In an ELISA, binding on a coated surface is turned into a signal by an enzyme label.

For `COc1cccc2c1C(=O)c1c(O)c3c(c(O)c1C2=O)C[C@@](O)(C(=O)CO)C[C@@H]3O[C@H]1C[C@H](N)[C@H](O)[C@H](C)O1` [doxorubicin], the “cell-secreted BNP concentration difference before and after addition of doxorubicin” value is on record as “BNP concentration difference increases with increasing doxorubicin concentration”.
